IC50 data for one molecule are collected here from BindingDB's records for patent US9624198 (Bayer Pharma Aktiengesellschaft, 2017).

The assay addresses T1, Alpha-2C adrenergic receptor (Homo sapiens, UniProt P18825).
T1 sequence (P18825 whole entry): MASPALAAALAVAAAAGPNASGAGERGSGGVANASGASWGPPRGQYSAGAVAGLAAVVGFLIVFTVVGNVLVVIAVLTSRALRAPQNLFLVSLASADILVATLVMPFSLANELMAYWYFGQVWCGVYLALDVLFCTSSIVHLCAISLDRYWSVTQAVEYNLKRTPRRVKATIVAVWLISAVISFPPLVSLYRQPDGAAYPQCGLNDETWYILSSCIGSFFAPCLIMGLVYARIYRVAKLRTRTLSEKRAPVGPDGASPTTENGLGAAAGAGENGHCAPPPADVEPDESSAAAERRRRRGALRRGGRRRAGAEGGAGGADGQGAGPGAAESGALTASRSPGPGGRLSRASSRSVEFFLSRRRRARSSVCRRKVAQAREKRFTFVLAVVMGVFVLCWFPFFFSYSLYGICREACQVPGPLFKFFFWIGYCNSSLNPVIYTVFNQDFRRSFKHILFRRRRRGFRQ
Briefly: In Vitro Assay. The method, then:
Antagonism against the adrenoreceptor α1A was tested using a recombinant human α1A receptor CHO cell line which additionally also recombinantly expresses mtAeq (mitochondrial aequorin). Antagonism against the adrenoreceptor α2A was tested using a recombinant human α2A-Gα16 receptor fusion protein CHO cell line (PerkinElmer Life Sciences) which additionally also recombinantly expresses mtAeq. Antagonism against the adrenoreceptor α2B was tested using a recombinant human α2B receptor CHO cell line (PerkinElmer Life Sciences) which additionally also recombinantly expresses mtAeq. Antagonism against the adrenoreceptor α2C was tested using a recombinant human α2C receptor CHO cell line which additionally also recombinantly expresses a chimaric G protein (Gαqi3) and mtOb (mitochondrial obelin).The cells were cultivated at 37° C. and 5% CO2 in Dulbecco's modified Eagle's Medium/NUT mix F12 with L-glutamine which additionally contains 10% (v/v) inactivated foetal calf serum, 1 mM sodium pyruvate, 0.9 mM sodium bicarbonate, 50 U/ml penicillin, 50 μg/ml streptomycin, 2.5 μg/ml amphotericin B and 1 mg/ml Geneticin. The cells were passaged with enzyme-free Hank's-based cell dissociation buffer. All cell culture reagents used were from Invitrogen (Carlsbad, USA).

Each structure is given as a SMILES string. pIC50: −log10 of the molar value.

In general, pIC50 refers to the IC50 on a negative log10 scale, so that one unit is a factor of ten. A low value points to a large IC50. Molecule `O=C(c1ccc(N2CC3(COC3)C2)nc1)N1CCC(N2CCc3ccccc3C2)CC1` [US9624198, 10] gave a pIC50 of 7.96.
